Values of other authors as cited in patent US20100055067A1, “PERFLUOROCARBON CONJUGATE AS A BLOOD SUBSTITUTE” (SNU R&DB Foundation, priority 2008, published 2010).
Read-outs that look alike come from different tables or passages of the source.

Key:
[1] = relatively low boiling point

## FC1(F)OC(F)(F)C(F)(F)C1(F)F [FX-80, perfluorotetrahydrofuran]
[1]
  damage to the lung: can cause substantial damage to the lung

## FC(F)(F)C(F)(F)C(F)(F)C(F)(F)N(C(F)(F)C(F)(F)C(F)(F)C(F)(F)F)C(F)(F)C(F)(F)C(F)(F)C(F)(F)F [FC-43, perfluorotributylamine]
Administered to test animals, liver and spleen, resulting in an adverse effect to the animals
  accumulation in the internal organs: accumulate in the internal organs such as liver and spleen for a long period of time

## FC(OC(F)(F)C(F)(OC(F)(F)C(F)(OC(F)(F)C(F)(OC(F)(F)C(F)(F)C(F)(F)F)C(F)(F)F)C(F)(F)F)C(F)(F)F)C(F)(F)F (stereo not drawn) [Freon E-4, 2-monohydrononacosafluoro-3,6,9,1 2-tetraoxa-5,8,11-trimethylpentadecan]
In vivo
  accumulation in the internal organs: accumulate in the internal organs such as liver and spleen for a long period of time
